The results in this text go back to patent US11400106B2, “Methods for inhibiting microbe growth” (priority 2018, dated 2022).

Where two headings read alike, the source gives them in different places.

The subject of one test is E. coli. The test can be described thus: microbe, parasite or virus in culture. It is filed as cell-based, Escherichia coli. The note with it: for MIC: Escherichia coli, 18 h, read-out: MIC, E. coli, MHB−. The method, then:
(§1) In the following experiments, bacterial cells were cultured in 96-well microtiter plates in cation-adjusted Mueller-Hinton Broth (MHB) for 18 h at 37° C. The main strains used were E. coli (K-12 BW25113) (placed in stationary incubator) and S. aureus (Newman Strain) (incubated at 250 r.p.m). Knockout strains (ΔtolcC and ΔychM) were used from the Keio knockout collection (Baba et al., Construction of Escherichia coli K-12 in-frame, single-gene knockout mutants: the Keio collection. Mol Syst Biol 2, 2006 0008, doi:10.1038/msb4100050 (2006)). For MIC determination and checkerboard analyses, Clinical & Laboratory Standards Institute (CLSI) protocol was used. […] DiSC3 loading of S. aureus cells was performed as previously described (Farha et al., Collapsing the proton motive force to identify synergistic combinations against Staphylococcus aureus. Chemistry & biology 20, 1168-1178, doi:10.1016/j.chembiol.2013.07.006 (2013)). CCCP concentration of 20 μM was used. pH adjustments were made by addition of HCl or NaOH. INT assay and ATP bioluminescence assays were performed as previously described (Farha et al., Collapsing the proton motive force to identify synergistic combinations against Staphylococcus aureus. Chemistry & biology 20, 1168-1178, doi:10.1016/j.chembiol.2013.07.006 (2013)). For chemical-genomic studies, the Keio library was grown overnight in cation-adjusted MHB broth, in 384-well plates. From these, treatment plates (25 mM sodium bicarbonate, or a sterile water control) were inoculated and grown for 15 hours at 37° C., in a stationary incubator. Data was normalized according to Mangat et al (Mangat et al., Rank ordering plate data facilitates data visualization and normalization in high-throughput screening. J Biomol Screen 19, 1314-1320, doi:10.1177/1087057114534298 (2014)), with gene products and GO terms mined from EcoCyc. The GFP promoter library (Keseler et al., EcoCyc: fusing model organism databases with systems biology. Nucleic Acids Res 41, D605-612, doi:10.1093/nar/gks1027 (2013)) was grown for 18 hours at ambient temperature with the same inoculation strategy as with the Keio collection. The analysis pipeline of Zaslaver et al (Zaslaver et al., A comprehensive library of fluorescent transcriptional reporters for Escherichia coli. Nat Methods 3, 623-628, doi:10.1038/nmeth895 (2006)) was used to generate maps of promoter activity, from which lists of promoters with increased or decreased activity were compiled.
(§2) Fold enhancement in MICs in the media supplemented with sodium bicarbonate is represented by a positive fold, whereas suppression of activity is represented by a negative fold.
(§3) The effect of sodium bicarbonate on the activity of additional antibacterial agents was investigated. Clinical isolates of various bacteria were obtained from the ATCC and the IHMA.
(§4) The effect of sodium bicarbonate on the activity of cationic antiseptic agents was investigated. Clinical isolates of various bacteria were obtained from the ATCC and the IHMA.

The next test has as its system S. aureus. The test can be described thus: microbe, parasite or virus in culture. The note with it: for MIC: Staphylococcus aureus, 18 h, read-out: MIC, S. aureus, MHB−; for Fold, S. aureus: fold shift in MIC; for effect of 25 mM sodium bicarbonate on antibacterial activity: result in words. The method, then:
as §1, §2, §3, §4

[1] abbreviates: MHB in the absence of sodium bicarbonate.
The mark [2] stands for this setting: antibiotic agents, MHB in the absence of sodium bicarbonate.
Where [3] appears, read: antibiotic agents, MHB in the presence of 25 mM sodium bicarbonate.
The mark [4] stands for this setting: MHB in the presence of 25 mM sodium bicarbonate.
Setting [5] is: antiseptic agents, MHB in the absence of sodium bicarbonate.
Where [6] appears, read: antiseptic agents, MHB in the presence of 25 mM sodium bicarbonate.

For `NC[C@@H]1O[C@H](O[C@H]2[C@@H](O)[C@H](O[C@@H]3[C@@H](O)[C@H](N)C[C@H](N)[C@H]3O[C@H]3O[C@H](CO)[C@@H](O)[C@H](O)[C@H]3N)O[C@@H]2CO)[C@H](N)[C@@H](O)[C@@H]1O` [Paromomycin], the MIC with E. coli (setting [1]) and with S. aureus was 2 µg/mL each time. Moreover, the “MIC, S. aureus, MHB+” value with S. aureus came to 2.

In the case of `CCN1CCN(C(=O)N[C@@H](C(=O)N[C@@H]2C(=O)N3[C@@H]2SC(C)(C)[C@@H]3C(=O)O)c2ccccc2)C(=O)C1=O` [Piperacillin], in the test with E. coli (setting [1]), the MIC came to 2 µg/mL. Also, in the test on S. aureus, the “MIC, S. aureus, MHB+” value was 1 and the MIC is 0.25 µg/mL.

For the compound `C=C[C@]1(C)C[C@@H](OC(=O)CO)[C@]2(C)[C@H](C)CC[C@]3(CCC(=O)[C@H]32)[C@@H](C)[C@@H]1O` [Pleuromutilin], in the test on E. coli, the “MIC, E. coli, MHB+” value is >128 μg of antimicrobial agent/mL of buffer. In addition, the MIC in the test with E. coli (setting [2]) is over 128 µg/mL. Further, in the test with S. aureus, the “MIC, S. aureus, MHB+” value is on record as 1 μg of antimicrobial agent/mL of buffer and the MIC worked out at 1 µg/mL.

For `CC(C)C[C@H](NC(=O)[C@H](CCCNC(=N)N)NC(=O)CNC(=O)CNC(=O)[C@@H](N)CCCNC(=N)N)C(=O)N[C@H]1CSSC[C@@H](C(=O)N[C@H](C(=O)NCC(=O)N[C@@H](CCCNC(=N)N)C(N)=O)C(C)C)NC(=O)[C@H](C(C)C)NC(=O)[C@@H]2CSSC[C@H](NC(=O)[C@H](Cc3ccc(O)cc3)NC1=O)C(=O)N[C@@H](CCCNC(=N)N)C(=O)N[C@@H](CCCNC(=N)N)C(=O)N[C@@H](CCCNC(=N)N)C(=O)N[C@@H](Cc1ccccc1)C(=O)N2` [Protegrin], the “enhancement of antimicrobial activity in the presence of bicarbonate” value with E. coli is reported as 8 fold; in the test with S. aureus (S. aureus, 25 mM sodium bicarbonate) it was 8 fold.

With `CO[C@H]1/C=C/O[C@@]2(C)Oc3c(C)c(O)c4c(O)c(c(/C=N/N5CCN(C)CC5)c(O)c4c3C2=O)NC(=O)/C(C)=C\C=C\[C@H](C)[C@H](O)[C@@H](C)[C@@H](O)[C@@H](C)[C@H](OC(C)=O)[C@@H]1C` [Rifampicin], the MIC with E. coli (setting [1]) came to 32 µg/mL. Moreover, in the test on S. aureus, the “MIC, S. aureus, MHB+” value stood at 0.031 and the MIC is 0.0078 µg/mL.

As for `C[C@@H]1CN(c2c(F)c(N)c3c(=O)c(C(=O)O)cn(C4CC4)c3c2F)C[C@H](C)N1` [Sparfloxacin], in the test with E. coli, the “MIC, E. coli, MHB+” value is recorded as 32 μg of antimicrobial agent/mL of buffer. The MIC in the test on E. coli (setting [2]) was found to be 16 µg/mL. In the test with S. aureus, the “MIC, S. aureus, MHB+” value was 0.25 μg of antimicrobial agent/mL of buffer and the MIC worked out at 0.125 µg/mL.

`CN[C@@H]1[C@H](O)[C@H](NC)[C@H]2O[C@@]3(O)C(=O)C[C@@H](C)O[C@H]3O[C@@H]2[C@H]1O` [Spectinomycin]: the MIC in the test with E. coli (setting [1]) was 16 µg/mL. In the test on S. aureus, the “MIC, S. aureus, MHB+” value worked out at 8 and the MIC came to 64 µg/mL.

As to `CC[C@H]1OC(=O)[C@H](C)C(=O)[C@H](C)[C@@H](O[C@@H]2O[C@H](C)C[C@H](N(C)C)[C@H]2O)[C@](C)(OC)C[C@@H](C)C(=O)[C@H](C)[C@H]2N(CCCCn3cnc(-c4cccnc4)c3)C(=O)O[C@]12C` [Telithromycin], in the test with E. coli, the “MIC, E. coli, MHB+” value is reported as 16 μg of antimicrobial agent/mL of buffer. The MIC with E. coli (setting [2]) was over 128 µg/mL. Besides, in the test with S. aureus, the “MIC, S. aureus, MHB+” value is 0.5 μg of antimicrobial agent/mL of buffer and the MIC came to 4 µg/mL.

Consider `C=C(NC(=O)C(=C)NC(=O)c1csc(C2=N[C@@H]3c4csc(n4)[C@H]4NC(=O)c5csc(n5)[C@H]([C@](C)(O)[C@@H](C)O)NC(=O)[C@H]5CSC(=N5)/C(=C/C)NC(=O)[C@H]([C@@H](C)O)NC(=O)c5csc(n5)[C@]3(CC2)NC(=O)[C@H](C)NC(=O)C(=C)NC(=O)[C@H](C)NC(=O)[C@H]([C@@H](C)CC)N[C@@H]2C=Cc3c([C@H](C)O)cc(nc3[C@H]2O)C(=O)O[C@@H]4C)n1)C(N)=O` [Thiostrepton], for which the values for the MIC in the test with E. coli and with S. aureus were over 128 µg/mL and 0.5 µg/mL, respectively. Besides, in the test on E. coli (setting [3]), the “MIC, E. coli, MHB+” value is recorded as >128 μg of antimicrobial agent/mL of buffer. Moreover, the “MIC, S. aureus, MHB+” value in the test with S. aureus (setting [3]) is 0.12 μg of antimicrobial agent/mL of buffer.

As for `CC1(C)S[C@@H]2[C@H](NC(=O)[C@H](C(=O)O)c3ccsc3)C(=O)N2[C@H]1C(=O)O` [Ticarcillin], the “MIC, E. coli, MHB+” value in the test on E. coli is given as 64 μg of antimicrobial agent/mL of buffer. Further, the MIC in the test with E. coli (setting [2]) was 32 µg/mL. Besides, in the test with S. aureus, the “MIC, S. aureus, MHB+” value is 32 μg of antimicrobial agent/mL of buffer and the MIC was 8 µg/mL.

For the compound `NC[C@H]1O[C@H](O[C@H]2[C@H](O)[C@@H](O[C@H]3O[C@H](CO)[C@@H](O)[C@H](N)[C@H]3O)[C@H](N)C[C@@H]2N)[C@H](N)C[C@@H]1O` [Tobramycin], in the test with E. coli, the “MIC, E. coli, MHB+” value is given as 0.25 μg of antimicrobial agent/mL of buffer. Moreover, the MIC with E. coli (setting [2]) and in the test on S. aureus was 0.25 µg/mL in each case. In addition, in the test on S. aureus, the “MIC, S. aureus, MHB+” value is listed as 0.5 μg of antimicrobial agent/mL of buffer.

`Oc1cc(Cl)ccc1Oc1ccc(Cl)cc1Cl` [Triclosan]: the “MIC, E. coli, MHB+” value with E. coli was 0.125 μg of antimicrobial agent/mL of buffer. For the same compound, the MIC in the test on E. coli (setting [2]) came to 0.125 µg/mL. Also, in the test with S. aureus, the “MIC, S. aureus, MHB+” value is given as 0.062 μg of antimicrobial agent/mL of buffer and the MIC was found to be 0.062 µg/mL.

With `CN[C@H](CC(C)C)C(=O)N[C@H]1C(=O)N[C@@H](CC(N)=O)C(=O)N[C@H]2C(=O)N[C@H]3C(=O)N[C@H](C(=O)N[C@H](C(=O)O)c4cc(O)cc(O)c4-c4cc3ccc4O)[C@H](O)c3ccc(c(Cl)c3)Oc3cc2cc(c3O[C@@H]2O[C@H](CO)[C@@H](O)[C@H](O)[C@H]2O[C@H]2C[C@](C)(N)[C@H](O)[C@H](C)O2)Oc2ccc(cc2Cl)[C@H]1O` [Vancomycin], the MIC with E. coli was 256 µg/mL; in the test with S. aureus it was 1 µg/mL. Also, the “MIC, E. coli, MHB+” value in the test on E. coli (setting [4]) came to 256. Also, the “MIC, S. aureus, MHB+” value in the test with S. aureus (setting [4]) worked out at 4.

In the case of `O=C(O)c1ccc(O)cc1` [p-hydroxybenzoate], in the test with E. coli, the “Fold, E. coli” value came to 1; the “MIC, E. coli, MHB” value is 64 μg of antimicrobial agent/mL of buffer; the “MIC, E. coli, MHB+” value was 64 μg of antimicrobial agent/mL of buffer. Besides, the “MIC, S. aureus, MHB” value in the test with S. aureus (setting [5]) is on record as 16 μg of antimicrobial agent/mL of buffer. The “MIC, S. aureus, MHB+” value in the test on S. aureus (setting [6]) is 16 μg of antimicrobial agent/mL of buffer. In addition, the “Fold, S. aureus” value in the test with S. aureus (antiseptic agents) worked out at 1.

Turning to `Cc1cc(NS(=O)(=O)c2ccc(N)cc2)no1` [sulfamethoxazole], the “effect of 25 mM sodium bicarbonate on antibacterial activity” value with E. coli and in the test on S. aureus (S. aureus) was “remained largely unchanged” throughout.

With `COc1cc(Cc2cnc(N)nc2N)cc(OC)c1OC` [trimethoprim], the “effect of 25 mM sodium bicarbonate on antibacterial activity” value with E. coli and with S. aureus (S. aureus) was “remained largely unchanged” each time.

Take Benzalkonium chloride: in the test with E. coli, the “Fold, E. coli” value is given as 4; the “MIC, E. coli, MHB” value is on record as 32 μg of antimicrobial agent/mL of buffer; the “MIC, E. coli, MHB+” value was 8 μg of antimicrobial agent/mL of buffer. In the test with S. aureus (setting [5]), the “MIC, S. aureus, MHB” value was 0.5 μg of antimicrobial agent/mL of buffer. Also, the “MIC, S. aureus, MHB+” value in the test with S. aureus (setting [6]) is listed as 0.25 μg of antimicrobial agent/mL of buffer. Moreover, the “Fold, S. aureus” value in the test with S. aureus (antiseptic agents) worked out at 2.

With Colistin, the “MIC, E. coli, MHB+” value in the test with E. coli is reported as 0.5 μg of antimicrobial agent/mL of buffer. Moreover, the “MIC, E. coli, MHB−” value in the test with E. coli (setting [2]) is 0.5 μg of antimicrobial agent/mL of buffer. Besides, the “Fold, E. coli” value with E. coli (antibiotic agents, fold shift in MIC, MHB− vs MHB+) is reported as 1. For the same compound, the “MIC, S. aureus, MHB−” value in the test with S. aureus (setting [2]) was >128 μg of antimicrobial agent/mL of buffer. Moreover, in the test with S. aureus (setting [3]), the “MIC, S. aureus, MHB+” value was >128 μg of antimicrobial agent/mL of buffer. Moreover, the “Fold, S. aureus” value in the test on S. aureus (antibiotic agents, MHB− vs MHB+) was 1.
